How the values were obtained:
Assay in all cases: KINOMEscan
Format in all cases: binding
Conditions in all cases: read-out: % control activity remaining
[1] = molecular target: T1, SRC (Homo sapiens, UniProt P12931)
T1 construct: purchased Eurofins DiscoverX KINOMEscan

[2] = molecular target: T2, ABL1(F317I)-phosphorylated (Homo sapiens, UniProt P00519, F317I)
T2 construct: purchased Eurofins DiscoverX KINOMEscan

[3] = molecular target: T3, PRKCI (Homo sapiens, UniProt P41743)
T3 construct: purchased Eurofins DiscoverX KINOMEscan
T3 sequence (P41743 1-596): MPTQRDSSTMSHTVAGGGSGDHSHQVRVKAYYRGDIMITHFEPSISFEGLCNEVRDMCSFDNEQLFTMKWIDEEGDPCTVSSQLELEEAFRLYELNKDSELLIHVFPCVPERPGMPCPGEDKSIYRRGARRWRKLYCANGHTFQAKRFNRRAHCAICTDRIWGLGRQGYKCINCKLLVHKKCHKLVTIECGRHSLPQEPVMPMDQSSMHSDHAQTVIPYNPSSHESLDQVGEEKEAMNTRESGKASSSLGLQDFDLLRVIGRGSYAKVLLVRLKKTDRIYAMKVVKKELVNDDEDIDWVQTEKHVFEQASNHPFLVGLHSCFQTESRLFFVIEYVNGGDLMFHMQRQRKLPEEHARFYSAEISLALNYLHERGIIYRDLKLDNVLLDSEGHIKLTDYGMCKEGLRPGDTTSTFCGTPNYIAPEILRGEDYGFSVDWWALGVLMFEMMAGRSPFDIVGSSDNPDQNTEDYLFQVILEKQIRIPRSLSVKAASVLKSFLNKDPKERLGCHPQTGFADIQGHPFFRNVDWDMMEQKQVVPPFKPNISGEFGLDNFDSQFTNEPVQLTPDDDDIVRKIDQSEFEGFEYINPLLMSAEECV

[4] = molecular target: T4, KIT(V559D,T670I) (Homo sapiens, UniProt P10721, T670I/V559D)
T4 construct: purchased Eurofins DiscoverX KINOMEscan
T4 sequence (P10721 26-976 V559D/T670I): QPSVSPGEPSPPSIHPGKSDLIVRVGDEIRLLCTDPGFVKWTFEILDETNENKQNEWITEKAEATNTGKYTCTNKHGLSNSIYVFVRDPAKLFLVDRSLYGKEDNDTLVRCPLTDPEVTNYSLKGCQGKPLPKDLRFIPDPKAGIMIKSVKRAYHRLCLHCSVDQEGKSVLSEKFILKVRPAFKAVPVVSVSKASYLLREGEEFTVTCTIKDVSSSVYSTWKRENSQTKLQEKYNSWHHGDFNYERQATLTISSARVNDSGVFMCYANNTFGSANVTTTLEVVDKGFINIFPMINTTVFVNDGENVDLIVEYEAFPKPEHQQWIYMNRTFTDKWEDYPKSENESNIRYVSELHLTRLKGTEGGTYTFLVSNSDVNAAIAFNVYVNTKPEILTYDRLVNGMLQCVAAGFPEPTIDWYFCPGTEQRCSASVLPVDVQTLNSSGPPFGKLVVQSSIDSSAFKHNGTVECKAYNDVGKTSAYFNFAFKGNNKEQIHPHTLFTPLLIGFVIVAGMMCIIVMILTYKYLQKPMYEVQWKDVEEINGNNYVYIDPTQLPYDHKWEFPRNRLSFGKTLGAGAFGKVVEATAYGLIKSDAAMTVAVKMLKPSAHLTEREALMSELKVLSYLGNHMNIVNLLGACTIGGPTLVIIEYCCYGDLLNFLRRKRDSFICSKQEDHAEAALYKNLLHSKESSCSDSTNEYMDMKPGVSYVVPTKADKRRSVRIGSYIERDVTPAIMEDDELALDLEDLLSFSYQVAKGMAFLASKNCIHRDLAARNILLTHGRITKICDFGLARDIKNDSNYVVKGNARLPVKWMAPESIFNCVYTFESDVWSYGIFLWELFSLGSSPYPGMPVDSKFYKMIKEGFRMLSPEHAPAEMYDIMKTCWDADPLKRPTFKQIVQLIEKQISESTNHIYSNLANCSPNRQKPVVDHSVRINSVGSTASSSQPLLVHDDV

[5] = molecular target: T5, ROCK1 (Homo sapiens, UniProt Q13464)
T5 construct: purchased Eurofins DiscoverX KINOMEscan
T5 sequence (Q13464 whole entry): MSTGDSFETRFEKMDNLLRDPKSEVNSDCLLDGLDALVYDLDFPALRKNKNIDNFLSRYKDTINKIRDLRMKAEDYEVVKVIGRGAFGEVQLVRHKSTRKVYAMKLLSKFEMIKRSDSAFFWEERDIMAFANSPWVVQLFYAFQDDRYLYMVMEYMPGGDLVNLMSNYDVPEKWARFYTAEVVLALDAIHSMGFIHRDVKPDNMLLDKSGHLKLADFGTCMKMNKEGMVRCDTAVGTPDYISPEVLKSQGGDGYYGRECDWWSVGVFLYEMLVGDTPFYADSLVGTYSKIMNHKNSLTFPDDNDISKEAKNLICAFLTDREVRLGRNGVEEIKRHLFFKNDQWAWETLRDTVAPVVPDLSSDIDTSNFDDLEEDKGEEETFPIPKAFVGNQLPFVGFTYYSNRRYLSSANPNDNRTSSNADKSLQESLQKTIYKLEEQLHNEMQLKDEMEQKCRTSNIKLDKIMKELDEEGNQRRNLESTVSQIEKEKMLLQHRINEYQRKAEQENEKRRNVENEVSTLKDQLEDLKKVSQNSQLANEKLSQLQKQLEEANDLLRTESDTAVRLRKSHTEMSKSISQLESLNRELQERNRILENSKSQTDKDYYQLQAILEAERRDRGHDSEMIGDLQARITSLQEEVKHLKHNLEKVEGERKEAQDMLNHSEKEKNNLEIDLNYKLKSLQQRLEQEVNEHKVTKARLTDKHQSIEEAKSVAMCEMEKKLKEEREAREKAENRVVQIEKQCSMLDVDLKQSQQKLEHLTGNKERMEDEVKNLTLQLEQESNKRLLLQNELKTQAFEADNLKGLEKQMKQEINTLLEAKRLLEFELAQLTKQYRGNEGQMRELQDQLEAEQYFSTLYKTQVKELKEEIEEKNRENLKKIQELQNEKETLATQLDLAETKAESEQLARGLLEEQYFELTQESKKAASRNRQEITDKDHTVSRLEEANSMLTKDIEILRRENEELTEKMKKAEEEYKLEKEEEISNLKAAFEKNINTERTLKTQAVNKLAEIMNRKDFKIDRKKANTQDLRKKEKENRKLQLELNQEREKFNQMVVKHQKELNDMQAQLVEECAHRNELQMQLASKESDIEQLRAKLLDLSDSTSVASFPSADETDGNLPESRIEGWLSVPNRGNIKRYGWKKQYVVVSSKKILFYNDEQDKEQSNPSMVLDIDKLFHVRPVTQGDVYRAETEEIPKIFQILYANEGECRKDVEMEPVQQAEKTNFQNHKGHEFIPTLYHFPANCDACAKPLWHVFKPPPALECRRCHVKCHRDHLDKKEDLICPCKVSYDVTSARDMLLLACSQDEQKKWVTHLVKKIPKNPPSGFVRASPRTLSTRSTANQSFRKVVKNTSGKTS

[6] = molecular target: T6, ABL1(Q252H)-phosphorylated (Homo sapiens, UniProt P00519, Q252H)
T6 construct: purchased Eurofins DiscoverX KINOMEscan

[7] = molecular target: T7, RIPK1 (Homo sapiens, UniProt Q13546)
T7 construct: purchased Eurofins DiscoverX KINOMEscan
T7 sequence (Q13546 1-671): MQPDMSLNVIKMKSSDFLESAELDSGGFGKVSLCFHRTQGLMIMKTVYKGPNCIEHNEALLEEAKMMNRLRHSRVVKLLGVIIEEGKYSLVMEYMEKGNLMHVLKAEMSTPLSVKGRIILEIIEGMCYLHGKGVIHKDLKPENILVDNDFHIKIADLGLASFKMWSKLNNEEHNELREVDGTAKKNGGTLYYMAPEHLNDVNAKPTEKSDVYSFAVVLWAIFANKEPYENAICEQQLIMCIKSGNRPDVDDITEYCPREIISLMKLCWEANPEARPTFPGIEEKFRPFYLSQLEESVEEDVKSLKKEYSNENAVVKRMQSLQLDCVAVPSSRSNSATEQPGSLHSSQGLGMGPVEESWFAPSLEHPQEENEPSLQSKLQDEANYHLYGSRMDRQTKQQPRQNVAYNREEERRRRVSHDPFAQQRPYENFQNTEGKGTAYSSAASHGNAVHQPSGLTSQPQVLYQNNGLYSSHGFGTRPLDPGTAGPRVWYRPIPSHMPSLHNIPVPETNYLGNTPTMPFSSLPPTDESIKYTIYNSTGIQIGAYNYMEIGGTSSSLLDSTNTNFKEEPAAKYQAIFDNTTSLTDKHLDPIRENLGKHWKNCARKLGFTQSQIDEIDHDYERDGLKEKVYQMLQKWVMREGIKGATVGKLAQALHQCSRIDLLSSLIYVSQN

[8] = molecular target: T8, PAK1 (Homo sapiens, UniProt Q13153)
T8 construct: purchased Eurofins DiscoverX KINOMEscan
T8 sequence (Q13153 whole entry): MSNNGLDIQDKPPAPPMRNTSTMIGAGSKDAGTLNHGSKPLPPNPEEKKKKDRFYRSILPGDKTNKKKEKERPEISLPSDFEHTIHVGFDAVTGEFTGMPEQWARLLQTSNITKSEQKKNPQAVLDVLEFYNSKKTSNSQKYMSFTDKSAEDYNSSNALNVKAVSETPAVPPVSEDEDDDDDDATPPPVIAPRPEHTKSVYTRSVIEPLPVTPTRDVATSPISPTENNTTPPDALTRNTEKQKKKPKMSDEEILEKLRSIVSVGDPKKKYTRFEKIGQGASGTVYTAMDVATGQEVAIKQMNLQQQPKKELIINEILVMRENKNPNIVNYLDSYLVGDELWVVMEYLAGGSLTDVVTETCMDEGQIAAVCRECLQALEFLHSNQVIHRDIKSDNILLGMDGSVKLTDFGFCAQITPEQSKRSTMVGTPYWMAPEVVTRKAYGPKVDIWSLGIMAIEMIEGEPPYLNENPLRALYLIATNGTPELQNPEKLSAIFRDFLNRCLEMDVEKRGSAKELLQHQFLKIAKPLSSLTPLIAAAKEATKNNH

[9] = molecular target: T9, RIPK4 (Homo sapiens, UniProt P57078)
T9 construct: purchased Eurofins DiscoverX KINOMEscan
T9 sequence (P57078 1-832): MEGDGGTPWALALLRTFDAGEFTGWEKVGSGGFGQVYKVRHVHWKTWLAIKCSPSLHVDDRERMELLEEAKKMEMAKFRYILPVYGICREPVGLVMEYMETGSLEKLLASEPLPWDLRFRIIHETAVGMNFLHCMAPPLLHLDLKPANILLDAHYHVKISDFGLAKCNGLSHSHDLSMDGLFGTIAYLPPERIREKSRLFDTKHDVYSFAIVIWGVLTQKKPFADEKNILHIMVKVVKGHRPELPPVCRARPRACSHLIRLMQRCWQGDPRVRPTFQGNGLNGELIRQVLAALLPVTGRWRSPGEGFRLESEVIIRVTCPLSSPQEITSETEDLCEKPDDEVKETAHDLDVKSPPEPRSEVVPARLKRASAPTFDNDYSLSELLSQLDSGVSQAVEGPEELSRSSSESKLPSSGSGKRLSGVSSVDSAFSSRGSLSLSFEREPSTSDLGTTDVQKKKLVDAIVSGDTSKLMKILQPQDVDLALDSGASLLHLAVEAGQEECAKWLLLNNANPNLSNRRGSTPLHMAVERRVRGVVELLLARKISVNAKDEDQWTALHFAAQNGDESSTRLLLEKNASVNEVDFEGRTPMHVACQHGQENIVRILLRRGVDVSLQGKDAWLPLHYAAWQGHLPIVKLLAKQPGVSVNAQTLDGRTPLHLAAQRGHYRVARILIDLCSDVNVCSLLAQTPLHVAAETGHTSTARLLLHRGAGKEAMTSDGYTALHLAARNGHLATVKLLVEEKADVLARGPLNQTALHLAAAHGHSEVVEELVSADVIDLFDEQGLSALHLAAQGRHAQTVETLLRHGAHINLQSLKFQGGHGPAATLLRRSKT

T1 sequence (P12931 whole entry): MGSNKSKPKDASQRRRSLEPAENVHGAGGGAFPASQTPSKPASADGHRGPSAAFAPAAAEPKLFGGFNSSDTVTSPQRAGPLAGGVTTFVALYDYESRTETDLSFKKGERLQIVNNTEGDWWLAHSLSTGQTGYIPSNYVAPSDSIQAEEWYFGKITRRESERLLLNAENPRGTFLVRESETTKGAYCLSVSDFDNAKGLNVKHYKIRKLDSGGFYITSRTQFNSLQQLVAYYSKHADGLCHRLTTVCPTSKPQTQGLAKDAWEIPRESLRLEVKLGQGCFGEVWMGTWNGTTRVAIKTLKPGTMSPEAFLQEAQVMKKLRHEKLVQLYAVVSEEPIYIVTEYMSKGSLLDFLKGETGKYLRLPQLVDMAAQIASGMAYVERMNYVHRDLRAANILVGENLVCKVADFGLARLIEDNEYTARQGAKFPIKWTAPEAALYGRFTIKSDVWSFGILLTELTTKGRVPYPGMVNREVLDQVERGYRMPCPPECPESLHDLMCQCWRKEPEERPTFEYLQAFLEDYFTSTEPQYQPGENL

SMILES	remaining binding at 1 µM [1] [%]	remaining binding at 1 µM [2] [%]	remaining binding at 1 µM [3] [%]	remaining binding at 1 µM [4] [%]	remaining binding at 1 µM [5] [%]	remaining binding at 1 µM [6] [%]	remaining binding at 1 µM [7] [%]	remaining binding at 1 µM [8] [%]	remaining binding at 1 µM [9] [%]
Clc1cc(NCC2CC2)c2ncc(-c3ccc4[nH]ncc4c3)n2n1 [compound 2, 6-Chloro-N-(cyclopropylmethyl)-3-(1H-indazol-5-yl)imidazo[1,2-b]pyridazin-8-amine]	100	93	88	20	36	78	91	98	96
O=C(CN1CCOCC1)N[C@H]1CC[C@H](Nc2cc(Cl)nn3c(-c4ccc5[nH]ncc5c4)cnc23)CC1 [compound 26]	100	8.1	100	0.85	22	46	74	99	95
CN1CCC(CNc2cc(Cl)nn3c(-c4cc5nc(Nc6ccccc6)[nH]c5cc4F)cnc23)CC1 [compound 31, 6-Chloro-3-(6-fluoro-2-(phenylamino)-1H-benzo[d]imidazol-5-yl)-N-((1-methylpiperidin-4-yl)methyl)imidazo[1,2-b]pyridazin-8-amine]	100	76	89	97	76	79	94	89	98

Reference: publication PMC6437697 (Journal of Medicinal Chemistry, 2019)
